Reference: US8008007B2, “S-adenosyl-L-methionine analogs with extended activated groups for transfer by methyltransferases” (RWTH Aachen, priority 2005, dated 2011)

Legend:
Assay type in all cases: biochemical
M.HhaI-Q82A = molecular target: T1, M.HhaI-Q82A (Haemophilus parahaemolyticus, UniProt P05102, Q82A); experiment: DNA protection assay with M.HhaI variant Q82A on phage lambda DNA; details: 1.16 μg phage lambda DNA, cofactor 300 μM, 37° C. for 4 h, then R.Hin6I; pH 7.4 (pH 6.0 for cofactor 6)
T1 construct: made in house
Source text: (§1) Transfer kinetics of the activated ethyl (—CH2CH3), propyl (—CH2CH2CH3), prop-2-enyl (—CH2CH═CH2), prop-2-ynyl (—CH2C≡CH), but-2-ynyl (—CH2C≡CCH3), pent-2-ynyl (—CH2C≡CCH2CH3) and benzyl group (—CH2C6H5) from cofactors 3-9 by the DNA adenine-N6 methyltransferase M.TaqI and its variant V21 G, the DNA cytosine-C5 methyltransferase M.HhaI and its variant Q82A, the DNA cytosine-N4 methyltransferase M.BcnIB and the DNA cytosine-C5 methyltransferase M.SssI variant Q142A to phage lambda DNA (48502 base pairs) were investigated using a DNA protection assay. This assay makes use of the fact that DNA methyltransferase-catalyzed modifications of nucleobases within the recognition sequences of restriction endonucleases can protect the DNA against fragmentation by these enzymes. […] Unmodified DNA containing 5′-TCGA-3′ recognition sequences is readily fragmentated by R.TaqI. After DNA modification by M.TaqI in the presence of a cofactor with an activated group Z—R modified 5′-TCGA^Z—R-3′ sequences are formed and, as a result, R.TaqI is unable to fragment the modified DNA. Occurrence of fragmentation is then analyzed by agarose gel electrophoresis.
(§2) By varying the amounts of DNA methyltransferase, this assay is used to investigate the enzymatic activities of the different DNA methyltransferases with cofactors 3-9 and compare them to the enzymatic activities with the natural cofactor 1. The minimal amount of DNA methyltransferase needed to fully protect 1 μg of phage lambda DNA against restriction endonuclease fragmentation under the given experimental conditions is defined as one enzyme unit (u).
(§3) Afterwards, the reactions were stopped by heating to 80° C. for 10 min. […] Parallel control experiments were performed with phage lambda DNA in the absence of M.HhaI and in the presence of M.HhaI (278 ng).
The DNA protection assay with the M.HhaI variant Q82A (see Example 2B) was performed as described for the wild type enzyme (Example 3B.1).

M.SssI-Q142A = molecular target: T2, M.SssI-Q142A (Spiroplasma monobiae, UniProt P15840, Q142A); experiment: DNA protection assay with M.SssI variant Q142A on phage lambda DNA; details: 1 μg phage lambda DNA, cofactor 300 μM, 37° C. for 4 h, then R.BstUI
T2 construct: made in house
Source text: as §1
By varying the amounts of DNA methyltransferase, this assay is used to investigate the enzymatic activities of the different DNA methyltransferases with cofactors 3-9 and compare them to the enzymatic activities with the natural cofactor 1. […]
Two fold serial dilutions (20 μL) of M.SssI-Q142A (starting with 3300 ng, 73 pmol) in buffer (10 mM Tris hydrochloride, 50 mM sodium chloride, 1 mM dithiothreitol, pH 7.9), phage lambda DNA (1 μg, 31.3 fmol, 3113 5′-CG-3′ recognition sequences, […] recognition sequences, MBI Fermentas) and the natural cofactor 1 (300 μM) or cofactor analogs 5 and 7 (300 μM) were incubated at 37° C. for 4 h. […] Loading buffer (10 μL, 0.25% bromphenol blue, 30% glycerol) was added to each sample, and aliquots (15 μL) were analyzed for the degree of protection by agarose gel (1%) electrophoresis.

M.BcnIB [1] = experiment: DNA protection assay with M.BcnIB (wild-type) on phage lambda DNA; details: 1.10 μg phage lambda DNA, cofactor 300 μM, 37° C. for 4 h, then R.BcnI; pH 7.4 (pH 6.0 for cofactor 6)
Source text: as §1, §2
Afterwards the reactions were stopped by heating to 80° C. for 10 min. A solution (10 μL) containing R.BcnI restriction endonuclease (12 u, MBI Fermentas), bovine serum albumin (0.1 mg/mL) and buffer (33 mM Tris acetate, 66 mM potassium acetate, 26.5 mM magnesium chloride, pH 7.9) was added to each dilution and incubation at 37° C. was continued for 1 h. […] Parallel control experiments were performed with phage lambda DNA in the absence of M.BcnIB and in the presence of M.BcnIB (144 ng).

M.HhaI = molecular target: T3, M.HhaI (Haemophilus parahaemolyticus, UniProt P05102); experiment: DNA protection assay with M.HhaI (wild-type) on phage lambda DNA; details: 1.16 μg phage lambda DNA, cofactor 300 μM, 37° C. for 4 h, then R.Hin6I; pH 7.4 (pH 6.0 for cofactor 6)
T3 construct: made in house
Source text: as §1, §2, §3

M.BcnIB [2] = experiment: Modification of cytosine-N4 in duplex oligodeoxynucleotide V.VI by M.BcnIB, nucleoside analysis by HPLC/ESI-MS; details: duplex V.VI 12.5 μM, cofactor 300 μM, enzyme 15 μM, 37° C. over night
Source text: Transfer of the activated ethyl (CH2CH3), propyl (CH2CH2CH3), prop-2-enyl (CH2CHCH2), prop-2-ynyl group (CH2CCH), but-2-ynyl (CH2CCCH3), pent-2-ynyl (CH2CCCH2CH3) or benzyl group (CH2C6H5) from cofactors 3-9 by the DNA adenine-N6 methyltransferase M.TaqI, the DNA cytosine-C5 methyltransferase M.HhaI variant Q82A or the DNA cytosine-N4 methyltransferase M.BcnIB to DNA was first investigated using short duplex oligodeoxynucleotides as substrates. After enzymatic transfer the duplex oligodeoxynucleotides were enzymatically fragmented and the resulting modified nucleosides were analyzed by reversed-phase HPLC coupled with ESI-MS.
The duplex oligodeoxynucleotide V.VI was produced by mixing equal molar amounts (2.5 nmol) of complementary single-stranded oligodeoxynucleotide V (5′-[…]-3′) (SEQ ID NO. 3) and VI (5′-[…]-3′) (SEQ ID NO. 4) in water, heating at 85° C. for 5 min and slow cooling to room temperature. […] M.BcnIB was denatured by heating to 80° C. for 10 min and incubated with proteinase K at 55° C. 1 h. Hydrolysis products were removed using gel filtration column (G-25 column, Amersham Biosciences).
The obtained solutions of duplex oligodeoxynucleotides were treated with buffer ( 1/10 volume, 100 mM Tris-HCl, 100 mM magnesium chloride, 10 mM zinc acetate, pH 7.5) containing Nuclease P1 (1500 u, Sigma) and calf intestine alkaline phosphatase (30 u, MBI Fermentas) and incubated at 37° C. for 4 h. Nucleosides were analyzed by reversed-phase HPLC (Discovery C18 150×2.1 mm, 5 μm, equipped with a Supelguard Discovery C18 20×2.1 mm, 5 μm, pre-column, Supelco, Germany) coupled with a mass spectrometric detector (HP 1100 series ESI-MS equipped with single quadruple). Compounds were eluted with methanol (0% for 6 min, followed by linear gradients to 56% in 15 min and to 80% in 1 min) in ammonium formate buffer (20 mM, pH 4.25 for cofactors 3, 4, 6 and pH 3.5 for cofactor 5) at a flow of 0.3 mL/min and detected at 280 nm. For on-line mass spectrometric detection post-column mobile phase modification (equal co-flow of 96% methanol, 4% formic acid and 1 mM sodium hydroxide) was used to enhance the detection efficiency of 2′-deoxycytidine and its derivatives. Mass spectra were recorded in 50-600 m/z range.

T3 sequence (P05102 whole entry): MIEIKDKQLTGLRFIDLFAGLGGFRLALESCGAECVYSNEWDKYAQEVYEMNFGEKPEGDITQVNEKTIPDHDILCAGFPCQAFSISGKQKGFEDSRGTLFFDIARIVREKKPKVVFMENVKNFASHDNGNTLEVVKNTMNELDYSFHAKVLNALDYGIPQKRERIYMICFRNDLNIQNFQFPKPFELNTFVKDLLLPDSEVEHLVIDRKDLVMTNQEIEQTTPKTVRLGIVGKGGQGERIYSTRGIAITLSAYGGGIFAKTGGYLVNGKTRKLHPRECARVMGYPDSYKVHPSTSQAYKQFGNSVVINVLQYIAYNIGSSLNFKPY
T1 sequence (P05102 whole entry Q82A): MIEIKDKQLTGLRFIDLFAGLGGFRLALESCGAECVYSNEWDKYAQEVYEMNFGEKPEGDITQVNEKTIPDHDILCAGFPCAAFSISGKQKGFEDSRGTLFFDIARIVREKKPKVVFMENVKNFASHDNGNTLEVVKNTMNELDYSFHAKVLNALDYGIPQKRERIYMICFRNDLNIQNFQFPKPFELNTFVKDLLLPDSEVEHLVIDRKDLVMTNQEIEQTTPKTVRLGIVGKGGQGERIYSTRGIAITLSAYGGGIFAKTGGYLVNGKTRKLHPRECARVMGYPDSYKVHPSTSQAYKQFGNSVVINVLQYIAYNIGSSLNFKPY
T2 sequence (P15840 whole entry Q142A): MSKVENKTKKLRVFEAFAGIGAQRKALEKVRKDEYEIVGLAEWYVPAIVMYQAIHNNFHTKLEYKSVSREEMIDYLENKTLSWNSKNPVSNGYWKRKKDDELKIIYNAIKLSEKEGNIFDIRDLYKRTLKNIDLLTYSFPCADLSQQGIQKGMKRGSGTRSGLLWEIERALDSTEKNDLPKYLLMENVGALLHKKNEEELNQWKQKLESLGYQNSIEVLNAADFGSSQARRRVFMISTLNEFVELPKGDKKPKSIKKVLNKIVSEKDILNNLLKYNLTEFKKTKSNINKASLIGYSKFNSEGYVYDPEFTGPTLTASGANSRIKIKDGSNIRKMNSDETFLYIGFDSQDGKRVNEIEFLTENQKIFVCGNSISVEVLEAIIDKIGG

Row | SMILES | specific activity of M.HhaI-Q82A with the cofactor (M.HhaI-Q82A) | specific activity of M.SssI-Q142A with the cofactor (M.SssI-Q142A) | specific activity of M.BcnIB with the cofactor (M.BcnIB [1]) | specific activity of M.HhaI with the cofactor (M.HhaI) | cofactor function for M.BcnIB (transfer of group Z-R to cytosine-N4) (M.BcnIB [2])
1 | CC#CC[S+](CCC(N)C(=O)O)CC1OC(n2cnc3c(N)ncnc32)C(O)C1O (mixture of isomers) [Cofactor 7] | 58 u/μg | 0.6 u/μg | 28 u/μg | 29 u/μg | –
2 | CC[S+](CCC(N)C(=O)O)CC1OC(n2cnc3c(N)ncnc32)C(O)C1O (stereo not shown) [Cofactor 3] | 7 u/μg | – | – | – | functions as a cofactor
3 | CCC[S+](CCC(N)C(=O)O)CC1OC(n2cnc3c(N)ncnc32)C(O)C1O (stereo not shown) [Cofactor 4] | 0 u/μg | – | – | 0 u/μg | does not function as a cofactor
4 | C=CC[S+](CCC(N)C(=O)O)CC1OC(n2cnc3c(N)ncnc32)C(O)C1O (stereo not shown) [Cofactor 5] | 29 u/μg | 1.2 u/μg | – | 7 u/μg | functions as a cofactor
5 | C#CC[S+](CCC(N)C(=O)O)CC1OC(n2cnc3c(N)ncnc32)C(O)C1O (stereo not shown) [Cofactor 6] | – | – | 0 u/μg | – | does not function as a cofactor
6 | CCC#CC[S+](CCC(N)C(=O)O)CC1OC(n2cnc3c(N)ncnc32)C(O)C1O (stereo not shown) [Cofactor 8] | – | – | 14 u/μg | – | –
